Experimental data taken from patent US20260138976A1 (Hoffmann-La Roche Inc., priority 2022, published 2026).

Tested on: primary human T-cells
Assay: Proliferation assay (5 days, CellTiter-Glo, CD3-stimulated T-cells)
Type: cell-based
Conditions: for Emax proliferation (% activation): CD3 condition, normalised to DMSO (neutral) and 20 μM reference compound A1 = 100%; for EC50: Homo sapiens, T-cell, 120 h, CD3-stimulated primary human T-cells, 5 days, CellTiter-Glo, fitted sigmoidal curve, read-out: Tcell Proliferation CD3 EC50
Method in brief: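 Expanded primary human T-cells, 100 k cells/well, were stimulated with plate-coated CD3 antibody (donor-titrated) and given compound in a 5 or 6 pt dose response from 20 μM or 10 μM final top, 0.2% DMSO final. ATP was read by CellTiter-Glo after 5 days. EC50 and Emax were reported as % of 20 μM reference compound A1.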

In the case of `COc1ccc(-c2ccc(CN3C(=O)[C@@H](N)CS(=O)(=O)c4ccc(-c5nnc(C6(F)CCCN(C)C6)o5)cc43)cc2)cc1` (stereo partly drawn) [Example 50, (3R)-3-amino-7-[5-(3-fluoro-1-methyl-3-piperidyl)-1,3,4-oxadiazol-2-yl]-5-[[4-(4-methoxyphenyl)phenyl]methyl]-1,1-dioxo-2,3-dihydro-1λ^6,5-benzothiazepin-4-one], the “Emax proliferation (% activation)” value is reported as 219 % activation and the EC50 is reported as 1040 nM.
In the case of `CN1CCCC(F)(c2nnc(-c3ccc4c(c3)N(Cc3ccc(-c5ccc(C(F)(F)F)cn5)cc3)C(=O)[C@@H](N)CS4(=O)=O)o2)C1` (stereo partly drawn) [Example 51, (3R)-3-amino-7-[5-(3-fluoro-1-methyl-3-piperidyl)-1,3,4-oxadiazol-2-yl]-1,1-dioxo-5-[[4-[5-(trifluoromethyl)-2-pyridyl]phenyl]methyl]-2,3-dihydro-1λ^6,5-benzothiazepin-4-one], the “Emax proliferation (% activation)” value is reported as 112 % activation and the EC50 is reported as 882 nM.
For `COC(=O)N1CC(c2nnc(-c3ccc4c(c3)N(Cc3ccc(-c5noc(C(C)(C)C)n5)cc3)C(=O)[C@@H](N)CS4(=O)=O)o2)CC(F)(F)C1` (stereo partly drawn) [Example 56, methyl 3,3-difluoro-5-[5-[(3R)-3-amino-5-[[4-(5-tert-butyl-1,2,4-oxadiazol-3-yl)phenyl]methyl]-1,1,4-trioxo-2,3-dihydro-1λ^6,5-benzothiazepin-7-yl]-1,3,4-oxadiazol-2-yl]piperidine-1-carboxylate], the “Emax proliferation (% activation)” value was 425 % activation and the EC50 was 2210 nM.
In the case of `COC(=O)N1CC(c2nnc(-c3ccc4c(c3)N(Cc3ccc(-c5ccc(C(F)(F)F)cc5)nc3)C(=O)[C@@H](N)CS4(=O)=O)o2)CC(F)(F)C1` (stereo partly drawn) [Example 57, methyl 3,3-difluoro-5-[5-[(3R)-3-amino-1,1,4-trioxo-5-[[6-[4-(trifluoromethyl)phenyl]-3-pyridyl]methyl]-2,3-dihydro-1λ^6,5-benzothiazepin-7-yl]-1,3,4-oxadiazol-2-yl]piperidine-1-carboxylate], the “Emax proliferation (% activation)” value is reported as 181 % activation and the EC50 is reported as 567 nM.
With `COC(=O)N1CC2CC(c3nnc(-c4ccc5c(c4)N(Cc4ccc(-c6ccc(C(F)(F)F)cc6)nc4)C(=O)[C@@H](N)CS5(=O)=O)o3)(C2)C1` [Example 58, methyl 1-[5-[(3R)-3-amino-1,1,4-trioxo-5-[[6-[4-(trifluoromethyl)phenyl]-3-pyridyl]methyl]-2,3-dihydro-1λ^6,5-benzothiazepin-7-yl]-1,3,4-oxadiazol-2-yl]-3-azabicyclo[3.1.1]heptane-3-carboxylate] the “Emax proliferation (% activation)” value was 114 % activation and the EC50 was 531 nM.
For `N#CC1(c2nnc(-c3ccc4c(c3)N(Cc3ccc(-c5ccc(C(F)(F)F)cn5)cc3)C(=O)[C@@H](N)CS4(=O)=O)o2)CC1` [Example 62, 1-[5-[(3R)-3-amino-1,1,4-trioxo-5-[[4-[5-(trifluoromethyl)-2-pyridyl]phenyl]methyl]-2,3-dihydro-1λ^6,5-benzothiazepin-7-yl]-1,3,4-oxadiazol-2-yl]cyclopropane-carbonitrile], the “Emax proliferation (% activation)” value was 101 % activation and the EC50 was 1570 nM.
For `CCOC(F)(c1nnc(-c2ccc3c(c2)N(Cc2ccc(-c4noc(C(F)(F)F)n4)cc2)C(=O)[C@@H](N)CS3(=O)=O)o1)C(F)(F)F` (stereo partly drawn) [Example 64, (3R)-3-amino-7-[5-(1-ethoxy-1,2,2,2-tetrafluoro-ethyl)-1,3,4-oxadiazol-2-yl]-1,1-dioxo-5-[[4-[5-(trifluoromethyl)-1,2,4-oxadiazol-3-yl]phenyl]methyl]-2,3-dihydro-1λ^6,5-benzothiazepin-4-one], the “Emax proliferation (% activation)” value was 132 % activation and the EC50 was 20.8 nM.
In the case of `N[C@H]1CS(=O)(=O)c2ccc(-c3nnc(N4CCC(F)(F)CC4)o3)cc2N(Cc2ccc(-c3noc(C(F)(F)F)n3)cc2)C1=O` [Example 68, (3R)-3-amino-7-[5-(4,4-difluoro-1-piperidyl)-1,3,4-oxadiazol-2-yl]-1,1-dioxo-5-[[4-[5-(trifluoromethyl)-1,2,4-oxadiazol-3-yl]phenyl]methyl]-2,3-dihydro-1λ^6,5-benzothiazepin-4-one], the “Emax proliferation (% activation)” value is reported as 104 % activation and the EC50 is reported as 26.1 nM.
`CC(C)(C#N)c1nnc(-c2cc3c(cc2F)S(=O)(=O)C[C@H](N)C(=O)N3Cc2ccc(-c3ccc(C(F)(F)F)cn3)cc2)o1` [Example 88, 2-[5-[(3R)-3-amino-8-fluoro-1,1,4-trioxo-5-[[4-[5-(trifluoromethyl)-2-pyridyl]phenyl]methyl]-2,3-dihydro-1λ^6,5-benzothiazepin-7-yl]-1,3,4-oxadiazol-2-yl]-2-methyl-propanenitrile] was tested, and the “Emax proliferation (% activation)” value was 106 % activation and the EC50 was 45.1 nM.
For `CC(C)(C)c1nnc(-c2ccc3c(c2)N(Cc2ccc(-n4nnc(C(F)(F)F)n4)cc2)C(=O)[C@@H](N)CS3(=O)=O)o1` [Example 90, (3R)-3-amino-7-(5-tert-butyl-1,3,4-oxadiazol-2-yl)-1,1-dioxo-5-[[4-[5-(trifluoromethyl)tetrazol-2-yl]phenyl]methyl]-2,3-dihydro-1λ^6,5-benzothiazepin-4-one], the “Emax proliferation (% activation)” value was 152 % activation and the EC50 was 344 nM.
For `CC(C)(C)c1nnc(-c2ccc3c(c2)N(Cc2ccc(-c4ncc(C(F)(F)F)o4)cc2)C(=O)[C@@H](N)CS3(=O)=O)o1` [Example 93, (3R)-3-amino-7-(5-tert-butyl-1,3,4-oxadiazol-2-yl)-1,1-dioxo-5-[[4-[5-(trifluoromethyl)oxazol-2-yl]phenyl]methyl]-2,3-dihydro-1λ^6,5-benzothiazepin-4-one], the “Emax proliferation (% activation)” value was 104 % activation and the EC50 was 120 nM.
`NC(c1nnc(-c2ccc3c(c2)N(Cc2ccc(-c4noc(C(F)(F)F)n4)cc2)C(=O)[C@@H](N)CS3(=O)=O)o1)C(F)(F)F` (some centres unmarked) [Example 94] was tested, and the “Emax proliferation (% activation)” value was 42 % activation and the EC50 was > 10000 nM.
In the case of `CCC(O)(c1nnc(-c2ccc3c(c2)N(Cc2ccc(-c4noc(C(F)(F)F)n4)cc2)C(=O)[C@@H](N)CS3(=O)=O)o1)C(F)(F)F` (some centres unmarked) [Example 95], the “Emax proliferation (% activation)” value is reported as 104 % activation and the EC50 is reported as 1640 nM.
With `CC(O)(c1nnc(-c2ccc3c(c2)N(Cc2ccc(-c4noc(C(F)(F)F)n4)cc2)C(=O)[C@@H](N)CS3(=O)=O)o1)C(F)(F)F` (stereo partly drawn) [Example 96, (3R)-3-amino-1,1-dioxo-7-[5-(2,2,2-trifluoro-1-hydroxy-1-methyl-ethyl)-1,3,4-oxadiazol-2-yl]-5-[[4-[5-(trifluoromethyl)-1,2,4-oxadiazol-3-yl]phenyl]methyl]-2,3-dihydro-1λ^6,5-benzothiazepin-4-one] the “Emax proliferation (% activation)” value was 103 % activation and the EC50 was 174 nM.
With `CC(C)(C#N)c1nnc(-c2ccc3c(c2)N(Cc2ccc(-c4cnc(C(F)(F)F)nc4)cc2)C(=O)[C@@H](N)CS3(=O)=O)o1` [Example 100] the “Emax proliferation (% activation)” value was 96 % activation and the EC50 was 1900 nM.
For `CC(C)(C#N)c1nnc(-c2ccc3c(c2)N(Cc2ccc(-c4noc(C5CCC(F)(F)CC5)n4)cc2)C(=O)[C@@H](N)CS3(=O)=O)o1` [Example 101, 2-[5-[(3R)-3-amino-5-[[4-[5-(4,4-difluorocyclohexyl)-1,2,4-oxadiazol-3-yl]phenyl]methyl]-1,1,4-trioxo-2,3-dihydro-1λ^6,5-benzothiazepin-7-yl]-1,3,4-oxadiazol-2-yl]-2-methyl-propanenitrile], the “Emax proliferation (% activation)” value was 175 % activation and the EC50 was 552 nM.
`CC(C)(C#N)c1nnc(-c2ccc3c(c2)N(Cc2ccc(-n4cc(C(F)(F)F)cn4)cc2)C(=O)[C@@H](N)CS3(=O)=O)o1` [Example 102, 2-[5-[(3R)-3-amino-1,1,4-trioxo-5-[[4-[4-(trifluoromethyl)pyrazol-1-yl]phenyl]methyl]-2,3-dihydro-1λ^6,5-benzothiazepin-7-yl]-1,3,4-oxadiazol-2-yl]-2-methyl-propanenitrile] was tested, and the “Emax proliferation (% activation)” value was 127 % activation and the EC50 was 363 nM.
In the case of `CC(C)(C#N)c1nnc(-c2ccc3c(c2)N(Cc2ccc(-c4ncc(C(F)(F)F)o4)cc2)C(=O)[C@@H](N)CS3(=O)=O)o1` [Example 105, 2-[5-[(3R)-3-amino-1,1,4-trioxo-5-[[4-[5-(trifluoromethyl)oxazol-2-yl]phenyl]methyl]-2,3-dihydro-1λ^6,5-benzothiazepin-7-yl]-1,3,4-oxadiazol-2-yl]-2-methyl-propanenitrile], the “Emax proliferation (% activation)” value is reported as 138 % activation and the EC50 is reported as 391 nM.
In the case of `CC(C)(C#N)c1nnc(-c2ccc3c(c2)N(Cc2ccc(-c4ccc(C(F)(F)F)cc4)nc2)C(=O)[C@@H](N)CS3(=O)=O)o1` [Example 106], the “Emax proliferation (% activation)” value is reported as 79 % activation and the EC50 is reported as 3790 nM.
With `Cn1nc(C(F)(F)F)cc1-c1ccc(CN2C(=O)[C@@H](N)CS(=O)(=O)c3ccc(-c4nnc(C(C)(C)C#N)o4)cc32)cc1` [Example 107, 2-[5-[(3R)-3-amino-5-[[4-[2-methyl-5-(trifluoromethyl)pyrazol-3-yl]phenyl]methyl]-1,1,4-trioxo-2,3-dihydro-1λ^6,5-benzothiazepin-7-yl]-1,3,4-oxadiazol-2-yl]-2-methyl-propanenitrile] the “Emax proliferation (% activation)” value was 165 % activation and the EC50 was 2160 nM.
`CC(C)(C#N)c1nnc(-c2ccc3c(c2)N(Cc2ccc(-c4ccc(OC(F)F)cn4)cc2)C(=O)[C@@H](N)CS3(=O)=O)o1` [Example 108, 2-[5-[(3R)-3-amino-5-[[4-[5-(difluoromethoxy)-2-pyridyl]phenyl]methyl]-1,1,4-trioxo-2,3-dihydro-1λ^6,5-benzothiazepin-7-yl]-1,3,4-oxadiazol-2-yl]-2-methyl-propanenitrile] was tested, and the “Emax proliferation (% activation)” value was 204 % activation and the EC50 was 820 nM.
In the case of `CC(F)(F)c1ccc(-c2ccc(CN3C(=O)[C@@H](N)CS(=O)(=O)c4ccc(-c5nnc(C(C)(C)C#N)o5)cc43)cc2)nc1` [Example 109, 2-[5-[(3R)-3-amino-5-[[4-[5-(1,1-difluoroethyl)-2-pyridyl]phenyl]methyl]-1,1,4-trioxo-2,3-dihydro-1λ^6,5-benzothiazepin-7-yl]-1,3,4-oxadiazol-2-yl]-2-methyl-propanenitrile], the “Emax proliferation (% activation)” value is reported as 129 % activation and the EC50 is reported as 445 nM.
